Experimental findings from PubChem BioAssay (NCI) are described below.

“And” between values parts separate entries of the source, which are not always exact repeats. Equal entries are not always repeated.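 These data come from cells grown in 96-well plates and exposed to compound for 48 hours at five concentrations. Abbreviation: GI50, concentration required for 50% inhibition of growth. The concentration for full growth arrest is given as TGI.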 Bounds are passed on as bounds.

Assay in all cases: inhibition of tumour cell growth, NCI panel, 48 h
The test system of assay [1] is MALME-3M melanoma.
Assay [2] relates to OVCAR-4 ovarian.
In assay [3] the test system is T-47D breast.
For assay [4], the system named is HL-60(TB) leukemia.
The test system of assay [5] is SK-MEL-28 melanoma.
Assay [6] has as its system OVCAR-8 ovarian.
For assay [7], the system named is UACC-257 melanoma.
Assay [8] deals with SK-OV-3 ovarian.
The test system of assay [9] is DLD-1 colon.
Assay [10] concerns LXFL 529 NSCLC.

For `O=C(NCCCO)c1cc(Cl)ccc1O`, the GI50 in assay [1] is 1.85 µM; in assay [2], 2.54 µM; in assay [3], 1.67 µM; in assay [4], 2.22 µM; in assay [5] it was 4.45 µM; in [6], 2.38 µM. In addition, the GI50 was 2.23 µM in assay [7] and 3.31 µM in [8]. The TGI in assay [1] is 8.33 µM; in assay [2] it was 12.4 µM; in [3], 18 µM; in [4], 6.35 µM; in assay [5], 17.3 µM; in [6] it was 13 µM. Further, the TGI in [7] came out at 7.54 µM; in [8], 12.3 µM.
For the compound `C/C(CC(=O)Nc1ccc(C)c(C)c1)=N\NC(N)=O`, the TGI in [9], in [1], in [4], in [5], in assay [6] and in [10] was over 100 µM each time. Moreover, the TGI in [7] and in [8] was over 100 µM each time.
Turning to `Cc1nc2ccccc2c(/C=C/c2ccc(Cl)cc2)c1C(=O)/C=C/c1ccc(C(F)(F)F)cc1`, the GI50 in assay [1] was 0.404 µM; in assay [2], 1.26 µM; in [3] it was 0.299 µM; in [4] it was 0.36 µM; in [5], 0.369 µM; in [6], 0.433 µM. Moreover, the GI50 is 1.06 µM in assay [7] and 1.67 µM in assay [8]. Moreover, the TGI was found to be 1.56 µM in [1]; 2.61 µM in [2]; 1.46 µM in assay [3]; 1.38 µM in assay [4]; 1.29 µM in assay [5]; 2.2 µM in assay [6]. Besides, the TGI is 2.93 µM in assay [7] and 3.1 µM in [8].
On to `O=[P+](O)c1ccsc1`, for which the TGI in assay [9], in assay [4], in [5], in [6], in assay [10] and in assay [8] was over 100 µM in each case.
Regarding `CC(=O)OC(C)(C)/C(C)=C/C(=O)O[C@H]1C(=O)O[C@@H]2C[C@H]3[C@H](C)C(=O)C(O[C@@H]4O[C@H](CO)[C@@H](O)[C@H](O)[C@H]4O)=C[C@]3(C)[C@H]3[C@@H](O)[C@H](O)[C@@]4(C(=O)O)OC[C@]32[C@@H]14`, the GI50 is 55.9 µM in [1]; over 100 µM in assay [2]; over 100 µM in assay [3]; 48.2 µM in assay [4]; over 100 µM in assay [6]; over 100 µM in [7]. The GI50 in assay [8] is over 100 µM. Further, the TGI in assay [1], in [2], in assay [3], in assay [4], in assay [5] and in assay [6] was over 100 µM each time. Moreover, the TGI in [7] and in assay [8] was over 100 µM in each case.
`Cc1cccc(C(C)(C)C)c1NC(=O)CC1C(=O)Nc2ccccc2S1(=O)=O` (stereo not given): the TGI in [9] is 18.3 µM; in assay [1], 25.4 µM; in assay [2], 25.5 µM; in assay [4], 10.7 µM; in [5], 30.3 µM; in assay [6] it was 22.4 µM. Also, the TGI in assay [10] was 24.5 µM; in [7], over 100 µM.
Take `Cc1nc(-c2cn3c(n2)-c2ccc(-c4cnn(C(C)(C)C(N)=O)c4)cc2OCC3)n(C(C)C)n1`: the TGI is 3.12 µM and > 10 µM in [1]; over 10 µM in [2]; 25.8 µM and > 10 µM in assay [4]; over 38.3 µM in assay [5]; 75.9 µM and > 10 µM in assay [6]; 26.1 µM and > 10 µM in [7]. Moreover, the TGI in assay [8] was found to be 0.137 µM. Besides, the GI50 in [3] is < 0.0384 µM and 0.00372 µM; in assay [4], < 0.0202 µM and 0.00955 µM; in [5], 0.535 µM and 0.414 µM; in assay [6], 3.38 µM and 5.87 µM; in [7], 0.297 µM and 0.733 µM; in assay [8] it was < 0.0126 µM and 0.0162 µM.
With `NCCCCCCCn1c2c(c3ccccc3c1=O)C(=O)c1ccccc1-2`, the GI50 in [1] is 1.98 µM; in assay [2] it was 2.34 µM; in assay [3] it was 2.01 µM; in [4], 1.38 µM; in assay [5], 1.75 µM; in assay [6], 1.69 µM. For the same compound, the GI50 is 2.19 µM in [7] and 2.96 µM in assay [8]. Besides, the TGI in assay [1] is 4.01 µM; in assay [2], 6.58 µM; in assay [3] it was 4.27 µM; in assay [4], 2.87 µM; in assay [5] it was 3.23 µM; in assay [6], 4.82 µM. For the same compound, the figures for the TGI in assay [7] and in assay [8] were 4.09 µM and 9.24 µM, respectively.
As for `N=c1ccn(O)cc1/C=C1/C(=O)Nc2ccccc21`, the GI50 in assay [1], in assay [2], in assay [3], in assay [4], in assay [5] and in [6] was over 100 µM each time. Further, the GI50 in assay [7] and in assay [8] was over 100 µM in each case. The TGI in [1], in assay [2], in assay [3], in assay [4], in assay [5] and in assay [6] was over 100 µM each time. Also, the TGI in assay [7] and in assay [8] was over 100 µM each time.
Take `[N-]=[N+]=NCCCCCC(=O)OC(C(=O)c1ccccc1)c1cccc(OCC(=O)NCCOCCOCCNC(=O)CCCC[C@@H]2SC[C@@H]3NC(=O)N[C@@H]32)c1` (stereo not given in full): the GI50 was over 100 µM in assay [1]; over 100 µM in assay [2]; 60.7 µM in assay [3]; 27.8 µM in [4]; over 100 µM in assay [5]; over 100 µM in [6]. The GI50 in assay [7] and in assay [8] was over 100 µM in each case. Moreover, the TGI in assay [1], in assay [2], in [3], in assay [4], in [5] and in [6] was over 100 µM throughout. For the same compound, the TGI in [7] and in [8] was over 100 µM throughout.
